Experimental data from patent US6365625B1, “Compound for inhibiting HIV infectivity” (Procept, Inc., priority 1993, dated 2002).
≈ marks a conversion by molar mass, not a printed value. Read-outs that look alike come from different tables or passages of the source.

How the values were obtained:
HIV-1 (JR-CSF) = type: cell-based
HIV-1 (ADA) = assay: microbe, parasite or virus in culture; type: cell-based; conditions: Human immunodeficiency virus 1, Monocyte, monocytes
HIV-1 14aPre = assay: Drug combination studies, neutralization of HIV-1 14aPre; type: cell-based
[1] = test system: gp120-mediated syncytium formation; assay: Inhibition of gp120-mediated syncytium formation (HL2/3 and HeLa-CD4-LTR-β-gal cells); conditions: 48 hours; PIC 024.4 based on 100% polymer by weight
Description: The effect of test compound on syncytium formation was evaluated using an assay developed by Dr. George Pavlakis and coworkers (Ciminale, V. et al., AIDS Res. Hum. Retro-viruses 6:1281-1287 (1990)). […] The cultures were then incubated in the presence of drug for 48 hours at 37° C., fixed and stained with X-gal. Blue syncytia were counted using an inverted microscope, and percent inhibition and IC50 values were calculated.

gp120/CD4 = target: T1, gp120/CD4 (Homo sapiens, UniProt P01730); assay: biochemical; type: binding
T1 construct: recombinant, soluble four-domain CD4 (sCD4) expressed in insect cells; host or cells: insect cells (sCD4)
Description: Polystyrene 96-well microtiter plates were treated with a 1 μg/ml solution of recombinant, soluble four-domain CD4 (sCD4) expressed in insect cells (100 μl/well) and allowed to incubate for two hours at room temperature. Plates were blocked for two hours at 4° C. with phosphate-buffered saline (PBS) containing 0.05% Tween-20 and 10 mg/ml bovine serum albumin (PBSTB, 200 μl/well), and then washed five times with PBS containing 0.05% Tween-20. Fifty microliters of 60 ng/ml recombinant gp120 (IIIB isolate) and 50 μl of each drug dilution in PBSTB were added to duplicate wells, and the plate was incubated overnight at 4° C. The plate was then washed five times with PBST and treated with a 210 μg/ml solution of monoclonal antibody NEA 9205 (100 gp120-III/well). This antibody recognizes the V3 loop region of gp120-IIIB. After incubation for 2 hours at 4° C., the plate was washed five times with PBST and treated with an anti-mouse IgGl antibody conjugated to alkaline phosphatase. After an additional incubation for 1 hour at 4° C., the plate was washed five times with PBST, treated with a p-nitrophenyl phosphate substrate solution, incubated for about 30 minutes at room temperature, and monitored for color development at 405 nm. […]

[2] = target: T2, Leu3A binding to recombinant sCD4 (Homo sapiens, UniProt P01730); assay: Inhibition of monoclonal antibody Leu3A binding to CD4 (ELISA); conditions: antibody 30 ng/ml; read-out: IC50 MAb binding inhibition, Leu3A (converted)
T2 construct: Plates coated with recombinant, soluble CD4 were treated with antibody
Description: (§1) A panel of related ELISA systems was used to evaluate the effect of test compounds on the binding of various monoclonal antibodies to recombinant sCD4 absorbed on plastic. Two of these antibodies, Leu3A and 19Thy, are directed against gp120 binding site on CD4. […] The ELISA formats were similar to those used to measure gp120 binding to CD4. Plates coated with recombinant, soluble CD4 were treated with antibody (30 ng/ml) and serial dilutions of drug. After incubation and washing, bound antibody was detected using an appropriate isotype-specific anti-immunoglobulin alkaline phosphatase conjugate.

[3] = target: T3, 19Thy binding to recombinant sCD4 (Homo sapiens, UniProt P01730); assay: Inhibition of monoclonal antibody 19Thy binding to CD4 (ELISA); conditions: antibody 30 ng/ml; read-out: IC50 MAb binding inhibition, 19Thy (converted)
T3 construct: Plates coated with recombinant, soluble CD4 were treated with antibody
Description: as §1

[4] = target: T4, OKT4 binding to recombinant sCD4 (Homo sapiens, UniProt P01730); assay: Inhibition of monoclonal antibody OKT4 binding to CD4 (ELISA); conditions: antibody 30 ng/ml
T4 construct: Plates coated with recombinant, soluble CD4 were treated with antibody
Description: as §1

HIV-1, strain HTLV-IIIB = type: cell-based; conditions: CEM-T4 cells, day 8; PIC 024.4 30% polymer by weight
Description: Dilutions were prepared in culture medium, and the compound was tested at concentrations ranging from 100 μg/ml to 0.003 μg/ml in half-log10 dilutions.
The assay was done in 96-well tissue culture plates using the CEM-T4 human T-lymphocyte cell line. The culture medium used was RPMI-1640 medium containing 25 mM N-[2-Hydroxyethyl]piperazine-n^1-[2-ethanesulfonic acid] (HEPES, Sigma Chemical Co.) and 2 mM L-glutamine, and supplemented with 10% fetal bovine serum, 2 mM L-glutamine, 50 units of penicillin G per ml, and 50 μg streptomycin sulfate per ml. CEM-T4 cells were treated with polybrene at a concentration of 2 μg/ml, and a 130 μl volume of cells (1×10^4 cells) was dispensed into each well. To one assay plate for each drug a 50 μl volume of each drug dilution (prepared as a 4×concentration) was added to five wells of cells, and the cells were incubated at 37° C. for two hours. […]
On the eighth day post-infection, the cells in each well were suspended and a 50-μl sample of each cell suspension was transferred to a new 96-well plate for use in the following assay. […] The absorbance at 590 nm was determined for each sample using a Molecular Devices Vmax microplate reader. […] When a dose-dependent effect for either CPE-inhibition or toxicity was seen, values for the 50% effective dose were calculated using the dose-effect analysis software of Chou and Chou (Elsevier-Biosoft).

[5] = target: T5, gp120 binding to CD4 receptor on CEM cells (Homo sapiens, UniProt P01730); type: cell-based; conditions: recombinant gp120 (IIIB) 10 nM; PIC 024.4 based on 100% polymer by weight
T5 construct: the CD4 receptor expressed on the surface of lymphocytic cells; endogenous in cells; host or cells: CEM cells
Description: This assay was used to measure the ability of test compounds to inhibit the binding of recombinant gp120 to the CD4 receptor expressed on the surface of lymphocytic cells. Cells of the CEM line (a CD4+ human T cell leukemia line) were suspended at 3×10^6 cells/ml in RPMI 1640 medium supplemented with 10% fetal bovine serum (FBS) containing 0.002% sodium azide, and 100 μl was aliquoted to individual assay tubes. Serial dilutions of test compound in water were added (10 μl/tube) and the tubes incubated for 2 hours at 25° C. Next, recombinant gp120 (IIIB isolate) diluted in RPMI 1640 buffer was added to a final concentration of 10 nM (1.2 μg/ml) and the tubes incubated overnight at 37° C. Cells were then washed thoroughly with PBS containing 10% FBS and 0.01% sodium azide. V3-specific monoclonal antibody NEA9284 was added to a concentration of 1 μg/ml and incubated for 30 minutes on ice. The cells were washed thoroughly as before and stained with fluorescein-labeled goat anti-mouse immunoglobulin for 30 minutes on ice. The washed cells were analyzed for mean fluorescence on a FACScan™ flow cytometer (Becton Dickinson). Percent inhibition of fluorescence was determined relative to cells that were not treated with drug.

[6] = target: T6, gp120 binding to CD4 receptor on lymphocytes in whole blood (Homo sapiens, UniProt P01730); type: cell-based; conditions: gp120-biotin 10 nM
T6 construct: the CD4 receptor expressed on the surface of lymphocytes in whole blood; from tissue; host or cells: freshly collected anticoagulated whole blood from normal donors
Description: This assay was used to measure the ability of test compounds to inhibit the binding of recombinant gp120 to the CD4 receptor expressed on the surface of lymphocytes in whole blood. Freshly collected, anticoagulated whole blood from normal donors (100 μl per tube) was treated with test compound and incubated for 2 hours at room temperature. The tubes were then treated with gp120-biotin (American Bio-Technology Products) to a final concentration of 10 nM, and incubated for an additional 3 hours at room temperature. Cells were then stained with fluorescein-labeled streptavidin (Becton Dickinson), treated with lysis buffer (Becton Dickinson), and washed with PBS containing 0.1% azide. Cells were then subjected to flow cytometric analysis on a FACScan™ flow cytometer (Becton Dickinson) and the mean fluorescence for the lymphocyte population was measured. Percent inhibition of fluorescence was determined relative to cells that were not treated with drug.

gp120 (SF2 isolate)/sCD4 = target: T7, gp120 (SF2 isolate)/sCD4 (Homo sapiens, UniProt P01730); type: binding
T7 construct: recombinant sCD4 was immobilized to the sensor surface
Text: This assay provided a direct measure of the ability of test compounds to inhibit the gp120/CD4 binding interaction. The BIAcore™ biosensor (Pharmacia Biosensor) allows for real-time interaction analysis without the need for labeling (Jonsson et al., BioTechniques 11:620-627 (1991); Malmquist, Nature 361:186-198 (1993)). Its operation is based on optical surface plasmon resonance (SPR) for detecting small changes in the refractive index on the surface of a thin gold film coated with a dextran matrix to which one ligand is immobilized. In the experiments described here, recombinant sCD4 was immobilized to the sensor surface by a standard amine coupling chemistry. Recombinant gp120 (SF2 isolate), alone or in the presence of test compound, was passed over the surface, and binding monitored by a change in “resonance units” (RU's). Percent inhibition was determined relative to RU levels observed in the absence of drug. A correction was made to account for the mass of the test article.

IIIB = conditions: cited from earlier work
monocytotropic isolates = conditions: cited from earlier work

## Cc1cn([C@H]2C[C@H](N=[N+]=[N-])[C@@H](CO)O2)c(=O)[nH]c1=O [AZT, zidovudine]
HIV-1 (JR-CSF); 0.004-50 μM, drug added 2 hours prior to infection
  p24 levels: substantially reduced
HIV-1 (JR-CSF); PHA blasts, PIC 024.4 30% polymer by weight
  Antiviral Activity ID50, JR-CSF: 0.001 µg/mL
HIV-1 (ADA); 168 h, read-out: EC50, Day 7
  EC50: 0.005 µg/mL (≈ 0.0187 µM)
HIV-1 (ADA); 168 h, read-out: EC90, Day 7
  EC90: 0.02 µg/mL (≈ 0.0748 µM)
HIV-1 (ADA); 336 h, read-out: EC50, Day 14
  EC50: 0.003 µg/mL (≈ 0.0112 µM)
HIV-1 (ADA); 336 h, read-out: EC90, Day 14
  EC90: 0.01 µg/mL (≈ 0.0374 µM)
HIV-1 14aPre; AZT 0.005 μM alone
  Table 8 readout of HIV-1 14aPre growth: 25
HIV-1 14aPre; AZT 0.01 μM alone
  Table 8 readout of HIV-1 14aPre growth: 17.5
HIV-1 14aPre; AZT 0.02 μM alone
  Table 8 readout of HIV-1 14aPre growth: 9.8
[1]
  IC50 syncytium inhibition (HL2/3): inactive

## O=C(O)C1=CC(=C(c2ccc(O)c(C(=O)O)c2)c2ccc(O)c(C(=O)O)c2)C=CC1=O [Aurintricarboxylic acid]
gp120/CD4
  IC50: ~2.37 µM
[2]
  IC50: 294 µM
[3]
  IC50: 206 µM
[4]
  IC50 MAb binding inhibition, OKT4: did not affect

## OC[C@@H]1CC[C@H](n2cnc3c(O)ncnc32)O1 [ddI, 2′,3′-Dideoxyinosine]
HIV-1, strain HTLV-IIIB
  Antiviral Activity ID50, IIIB: 1.2 µg/mL
HIV-1 14aPre; DDI 1.25 μM alone
  Table 8 readout of HIV-1 14aPre growth: 36.5
HIV-1 14aPre; DDI 5 μM alone
  Table 8 readout of HIV-1 14aPre growth: 11.2
HIV-1 14aPre; DDI 10 μM alone
  Table 8 readout of HIV-1 14aPre growth: 1.2

## dextran sulfate
[5]
  IC50 gp120/CEM binding inhibition: 23 µg/mL
gp120/CD4; recombinant gp120 IIIB, recombinant sCD4, PIC 024.4 based on 100% polymer by weight
  IC50 gp120/CD4 binding inhibition (ELISA): inactive
[6]
  IC50 gp120/whole blood binding inhibition: ≥ 1000 µg/mL
gp120 (SF2 isolate)/sCD4
  IC50 BIAcore inhibition: inactive
IIIB; AHT 8
  Antiviral Activity ID50, IIIB: 8 µg/mL
IIIB; TM 11
  Antiviral Activity ID50, IIIB: 4 µg/mL
Monocytotropic isolates
  activity against many monocytotropic isolates: inactive
[1]
  IC50 syncytium inhibition (HL2/3): 0.9 µg/mL
